Molecules are shown by their SMILES. Where only a bound is given, the exact number is not on record here.

One series relates to B16F10 cells. Briefly: Cell viability / cytotoxicity, EZ-Cytox assay. The class given is cell-based, murine. How it is done:
Before investigating their inhibitory effects on B16F10 cells, the viability of (Z)-BPT derivatives 1–3 was examined in B16F10 cells.
To determine the cell viability, six different concentrations (0, 1, 2, 5, 10, and 20 µM) of (Z)-BPT derivatives 1–3 were used, and the results were examined at two time points (48 and 72 h). […] Based on the cell viability results, the concentrations for cell-based assays related to the melanin production level and cellular tyrosinase activity were determined.
Cytotoxicity studies of (Z)-BPT derivatives 1–3 were performed on B16F10 melanoma cells using the previously established EZ-Cytox (EZ-3000, DoGenBio, Seoul, Republic of Korea) test, and cytotoxicity studies of (Z)-BPT derivatives 1–3 were conducted on B16F10 melanoma cells. Briefly, B16F10 cells were seeded in a 96-well plate at a density of 1 × 10^4 cells/well and cultivated at 37 °C for 24 h in a humid environment with 5% CO2. […] The cells were then incubated at 37 °C for 2 h after 10 µL of the EZ-Cytox solution had been added to each well. To determine the cell viability, the absorbance of each well was measured at 450 nm using a microplate reader (VersaMax^TM, Molecular Devices, Sunnyvale, CA, USA). Each assay was performed in triplicates.
Figure 6 Effects of (Z)-BPT derivatives 1–3 on cell viability in B16F10 cells. Cytotoxic effects were measured using an EZ-Cytox assay at six different concentrations (0, 1, 2, 5, 10, and 20 µM) of 1–3. (A) Derivative 1; (B) Derivative 2; (C) Derivative 3. *** p < 0.001 for non-treated cells vs. cells treated with 3.

Series [1] can be described thus: DPPH radical scavenging assay. The note with it: 1 mM, 30 min in the dark. As to the method: The 2,2-diphenyl-1-picrylhydrazyl (DPPH) radical scavenging capacity of the (Z)-BPT derivatives (1 mM) was investigated using L-ascorbic acid (1 mM, vitamin C) as a positive control. […] L-Ascorbic acid scavenged 97.1% of the DPPH radical, whereas (Z)-BPT derivative 1 with a 4-hydroxyl substituent on the β-phenyl ring scavenged 46.5% of the DPPH radical.
The antioxidant properties of (Z)-BPT derivatives 1–14 against DPPH (2,2-diphenyl-1-picrylhydrazyl) radicals were examined using a DPPH radical scavenging assay, as previously described with minor modifications. DPPH solution (180 µL, 0.2 mM) in methanol was mixed with a (Z)-BPT derivative solution (1–14, 20 µL, 10 mM) in dimethyl sulfoxide in each well of a 96-well plate, and the mixture was kept for 30 min in the dark at room temperature. The absorbance at 517 nm was measured using a VersaMax ™ microplate reader (Molecular Devices, Sunnyvale, CA, USA). The capacity of the derivatives to scavenge DPPH radicals was compared with that of L-ascorbic acid, which was used as the positive control. Each experiment was run independently in triplicates.
Figure 10 The radical scavenging effect of (Z)-BPT derivatives on DPPH. The DPPH radical scavenging activities of test samples (1 mM) were assayed after being left in the dark for 30 min. Distilled water and dimethyl sulfoxide (DMSO) were utilized as the solvents for the positive control L-ascorbic acid and the (Z)-BPT derivatives, respectively. Asterisks (***) represent a significant difference between L-ascorbic acid and the (Z)-BPT derivatives, and results are expressed as the mean ± standard error of three different experiments. *** p < 0.001.
For orientation: The DPPH test is a chemical assay of radical scavenging.

The target of series [2] is T1, mushroom tyrosinase (Agaricus bisporus, UniProt C7FF04). Kind of series: Kinetic studies on mushroom tyrosinase inhibition (Lineweaver–Burk and Dixon plots, L-DOPA substrate). It counts as biochemical. Further details: purchased Sigma-Aldrich. How it is done:
As depicted in Figure 2, the mechanisms of tyrosinase inhibition were analyzed using Lineweaver–Burk plots. […] Each of the four straight lines produced at each inhibitor concentration converged to a single point on the y-axis. […] In contrast, in derivative 3, four straight lines generated at each inhibitor concentration intersected at a point in the second quadrant. According to the Lineweaver–Burk plot, as the inhibitor concentration increased, the Vmax value of 3 decreased, but the KM value increased.
To determine the Ki (inhibition constant) values of (Z)-BPT derivatives 1–3, Lineweaver–Burk plots for 1–3 were transformed into the corresponding Dixon plots (Figure 3). Each Dixon plot obtained from each Lineweaver–Burk plot produced four straight lines that intersected at one point in the second quadrant. The vertical lines from the merge point to the x-axis provide the Ki value of each (Z)-BPT derivative.
To determine the mode of action, Lineweaver–Burk plots of (Z)-BPT derivatives 1–3 were acquired. In brief, 10 µL of (Z)-BPT derivatives 1–3 (final concentrations:0, 3, 6, or 12 µM for 1; 0, 0.05, 0.1, or 0.2 µM for 2; 0, 2.5, 5, or 10 µM for 3) was added to a 96-well plate containing a substrate mixture (170 µL) consisting of an aqueous solution of L-dopa at final concentrations of 0.5, 1.0, 2.0, or 4.0 mM and 14.7 mM potassium phosphate buffer (pH 6.5), and a mushroom tyrosinase aqueous solution (20 µL, 20 units). Using a microplate reader (VersaMax^TM, Molecular Devices, Sunnyvale, CA, USA) to measure the increase in absorbance at a wavelength of 492 nm (ΔOD492/min), the initial rate of dopachrome synthesis in the reaction mixture was estimated. Using five different concentrations of L-dopa, Lineweaver–Burk plots (inverse of the response rate (1/V) vs. inverse of L-dopa concentration (1/(S)) were created. The convergence points of the four plot lines were used to define the mode of action of tyrosinase inhibition.
Figure 2 Lineweaver–Burk plots for the inhibition of mushroom tyrosinase activity by (Z)-BPT derivatives 1–3. […] Three independent experiments with five different concentrations (0.5, 1, 2, 4, and 8 mM) of an L-DOPA substrate were used to measure the augmented dopachrome optical density per minute at 492 nm. The data are shown as mean values of 1/V (an inverse of that optical density per minute). The (Z)-BPT derivatives were used at concentrations of 0 (filled circles), 3 (unfilled circles), 6 (filled triangles), and 12 µM (unfilled triangles) for 1; 0 (filled circles), 0.05 (unfilled circles), 0.1 (filled triangles), and 0.2 µM (unfilled triangles) for 2; and 0 (filled circles), 2.5 (unfilled circles), 5 (filled triangles), and 10 µM (unfilled triangles) for 3. Each experiment was run independently in triplicates.
Figure 3 Dixon plots for the inhibition of mushroom tyrosinase activity by (Z)-BPT derivatives 1–3. The Ki values of (Z)-BPT derivatives 1–3 were obtained from the absolute values of the x-coordinate where four straight lines converged at one point. Three independent experiments with four different concentrations of (Z)-BPT derivatives were conducted to measure the augmented dopachrome optical density per minute at 492 nm. The data are shown as the mean values of 1/V (an inverse of that optical density per minute). The (Z)-BPT derivatives were used at concentrations of 0, 3, 6, and 12 µM for 1; 0, 0.05, 0.1, and 0.2 µM for 2; and 0, 2.5, 5, and 10 µM for 3. The experiments were performed at four different concentrations (0.5, 1, 2, and 4 mM) of L-DOPA. Each experiment was run independently in triplicates.
Target sequence in this assay (C7FF04 1-392 limits assumed): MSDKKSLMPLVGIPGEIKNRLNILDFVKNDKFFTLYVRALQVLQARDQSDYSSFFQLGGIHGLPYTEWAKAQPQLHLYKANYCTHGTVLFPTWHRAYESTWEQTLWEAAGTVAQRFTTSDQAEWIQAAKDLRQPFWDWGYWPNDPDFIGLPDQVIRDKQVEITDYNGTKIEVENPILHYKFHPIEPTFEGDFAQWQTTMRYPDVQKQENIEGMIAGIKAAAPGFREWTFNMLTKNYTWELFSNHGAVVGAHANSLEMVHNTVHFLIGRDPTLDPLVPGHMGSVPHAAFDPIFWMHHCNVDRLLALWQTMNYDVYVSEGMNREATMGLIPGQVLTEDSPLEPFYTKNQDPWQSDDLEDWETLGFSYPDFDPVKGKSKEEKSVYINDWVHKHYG

Series [3] concerns the target T1, mushroom tyrosinase. Briefly: Inhibition assay against mushroom tyrosinase (L-tyrosine substrate). It counts as biochemical.
Target sequence in this assay (C7FF04 1-392): as the sequence (C7FF04 1-392 limits assumed) above
Experimental: Therefore, the inhibitory effect of 14 synthetic (Z)-BPT derivatives on mushroom tyrosinase was investigated according to a previously described procedure [39].
Tyrosinase inhibition experiments were performed independently in triplicates. […] The IC50 values are presented as the mean ± standard error of the mean (SEM).
Minor modifications were made to the previous description of the inhibitory activity of mushroom tyrosinase [39]. […] After 30 min incubation at 37 °C, the amount of dopachrome produced in the assay mixture was measured at 492 nm using a microplate reader (VersaMax^TM, Molecular Devices, Sunnyvale, CA, USA) for determining the remaining tyrosinase activity. To obtain the IC50 values for each test sample, dose-dependent inhibition studies were performed in triplicates using three to five different concentrations of each test sample.

With `O=C1N=C(c2ccccc2)S/C1=C\c1ccc(O)c(O)c1` [Compound 3, (Z)-5-(3,4-Dihydroxybenzylidene)-2-phenylthiazol-4(5H)-one], the “concentrations showing cytotoxic effects” value in the series with B16F10 cells (at 72 h (first statement of the sentence)) is on record as at least 5 µM; in the series on B16F10 cells (at 72 h (second statement of the sentence)), at least 2 µM. Besides, the “DPPH radical scavenging activity” value in series [1] came to 96.2%. Besides, the Ki (commonly the equilibrium dissociation constant of an inhibitor or competing ligand from its target) on mushroom tyrosinase [2] (Dixon plots, read-out: Ki (inhibition constant)) was 4.8 µM. Moreover, the Inhibition type result at mushroom tyrosinase [2] (Lineweaver–Burk plot) was “mixed-type inhibitor”.

For the molecule `COc1cc(/C=C2\SC(c3ccccc3)=NC2=O)ccc1O` [Compound 4, (Z)-5-(4-Hydroxy-3-methoxybenzylidene)-2-phenylthiazol-4(5H)-one], in series [1], the “DPPH radical scavenging activity” value was 81.0%.

In the case of `CCOc1cc(/C=C2\SC(c3ccccc3)=NC2=O)ccc1O` [Compound 5, (Z)-5-(3-Ethoxy-4-hydroxybenzylidene)-2-phenylthiazol-4(5H)-one], in series [1], the “DPPH radical scavenging activity” value was 58.0%.

For `COc1ccc(/C=C2\SC(c3ccccc3)=NC2=O)cc1O` [Compound 6, (Z)-5-(3-Hydroxy-4-methoxybenzylidene)-2-phenylthiazol-4(5H)-one], the “DPPH radical scavenging activity” value in series [1] worked out at 25.1%.

As to `O=C1N=C(c2ccccc2)S/C1=C\c1ccccc1O` [Compound 7, (Z)-5-(2-Hydroxybenzylidene)-2-phenylthiazol-4(5H)-one], the “mushroom tyrosinase inhibitory activity (in words)” value at mushroom tyrosinase [3] was “did not exhibit mushroom tyrosinase inhibitory activity”.

Take `COc1cc(/C=C2\SC(c3ccccc3)=NC2=O)cc(OC)c1O` [Compound 12, (Z)-5-(4-Hydroxy-3,5-dimethoxybenzylidene)-2-phenylthiazol-4(5H)-one]: the “DPPH radical scavenging activity” value in series [1] is “moderate to strong DPPH radical scavenging activity”.

`O=C1N=C(c2ccccc2)S/C1=C\c1ccc(O)c(Br)c1` [Compound 13, (Z)-5-(3-Bromo-4-hydroxybenzylidene)-2-phenylthiazol-4(5H)-one]: the “DPPH radical scavenging activity” value in series [1] is 14.8%.

Take `O=C1N=C(c2ccccc2)S/C1=C\c1cc(Br)c(O)c(Br)c1` [Compound 14, (Z)-5-(3,5-Dibromo-4-hydroxybenzylidene)-2-phenylthiazol-4(5H)-one]: in series [1], the “DPPH radical scavenging activity” value is given as 57.3%.

With `O=C1O[C@H]([C@@H](O)CO)C(O)=C1O` [L-Ascorbic acid, L-ascorbic acid, reference compound], the “DPPH radical scavenging activity” value in series [1] is recorded as 97.1%.
